Columns and labels:
[1] = test system: phosphorylated Akt protein (Ser473); experiment: Cellular PI3K / Akt pathway assay (phospho-Akt ELISA); format: cell-based; conditions: Homo sapiens; MCF7 cells, stimulated with ß-Heregulin (20ng/ml), compound incubated 48h, phospho-Akt1 (Ser473) ELISA
Protocol: In order to study the cellular activity of the compounds according to the present invention, an Enzyme Linked Immunosorbent Assay (ELISA)-based assay has been used specific phospho-AKT. The assay is based on a Sandwich ELISA kit (PathScan™ Phospho-Akt1 (Ser473); Cell Signaling, USA; #7160).
The ELISA Kit detects endogenous levels of phosphorylated Akt protein. A phospho-Akt (Ser473) antibody (Cell Signaling, USA; #9271) has been coated onto the microwells. After incubation with cell lysates, the coated antibody captures the phosphorylated Akt protein. Following extensive washing, Akt1 monoclonal antibody (Cell Signaling, USA; #2967) is added to detect the captured phospho-Akt1 protein. HRP-linked anti-mouse antibody (HRP: horseradish peroxidase; Cell Signaling, USA; #7076) is then used to recognize the bound detection antibody. HRP substrate (= 3,3',5,5'-tetramethylbenzidine (TMB); Cell Signaling, USA; #7160) is added to develop colour. The magnitude of optical density for this developed color is proportional to the quantity of phosphorylated Akt protein.
MCF7 cells (ATCC HTB-22) are seeded into 96 well fate bottom plates at a density of 10000 cells/well. 24 hours after seeding, the cells are serum starved using low-serum medium (IMEM media including 0,1% charcoal treated FCS (FCS: fetal calf serum)). After 24 hours 1 µl each of the compound dilutions (test compounds were dissolved as 10 mM solutions in dimethylsulfoxide (DMSO) and subsequently diluted) are added into each well of the 96 well plates and incubated for 48h at 37°C in a humidified athmosphere containing 5% CO2. To stimulate Akt phosphorylation, ß-Heregulin (20ng/ml β-HRG) is added in parallel to the compounds. Wells containing unstimulated control cells (no β-Heregulin stimulation) are incubated with or without the diluted compound. Wells containing untreated control cells (no compound) are filled with medium containing 0.5% v:v DMSO and are or are not stimulated with β-Heregulin.
Cells are harvested and lysed with brief sonification in 1x x cell lysis buffer (20mM Tris (pH7.5), 150 mM NaCl, 1 mM ethylene diaminetetraacetate (EDTA), 1 mM ethylene glycolbis(2-aminoethyl)-N,N,N',N'-tetraacetic acid (EGTA), 1vol% Triton X-100, 2.5mM sodium pyrophosphate, 1 mM β-glycerolphosphate, 1 mM Na3VO4, 1 µg/ml leupeptin). The lysate is centrifuged for 10 min. at 4°C and the supernatant is transferred to a new tube. 100 µl of sample diluent (0.1vol% Tween-20, 0.1vol% sodium azide in phosphate buffered saline (PBS)) are added to a microcentrifuge tube and 100 µl of cell lysate are transferred into the tube and vortexed. 100 µl of each diluted cell lysate are added to the appropriate ELISA well, and incubated overnight at 4°C. The plates are washed 4 times with 1 x wash buffer (1 vol% tween-20, 0.33vol% thymol, in PBS). Next 100 µl of detection antibody (Akt1 (2H10) monoclonal detection antibody; Cell Signaling, USA; #2967) are added to each well and incubation continued for 1 h at 37°C. The washing procedure is repeated between each step. 100µl of secondary antibody (anti-mouse IgG HRP-linked antibody; Cell Signaling, USA; #7076) are added to each well and incubated for 30 min. at 37°C. Than, 100µl of TMB substrate (0.05% 3,3',5,5' tetramethylbenzidine, 0.1 % hydrogen peroxide, complex polypeptides in a buffered solution; Cell Signaling, USA; #7160) are added to each well and incubated for 30 min. at 25°C. Finally 100 µl of STOP solution (0.05vol% α and β unsaturated carbonyl compound) are added to each well and the plate are shaked gently. The absorbance is measured at λ=450 nm (Wallac Victor2; Perkin Elmer, USA) within 30 min. after adding the STOP solution. The analysis of the data is performed using a statistical program (Excel; Microsoft, USA). Preferred compounds show an inhibitory activity towards Akt phosphorylation below 10µM.

OvCAR3 cells = experiment: Cellular proliferation / Cytotoxicity assay (Alamar Blue); format: cell-based; conditions: Homo sapiens, OVCAR-3, 48h incubation, Alamar Blue (Resazurin) cell viability, read-out: Anti-proliferative / Cytotoxic activity (OvCAR3 cells)
Protocol: The anti-proliferative activity of the compounds as described herein, is evaluated using the OvCAR3, HCT116 and A549 cell lines and the Alamar Blue (Resazurin) cell viability assay (O'Brien et al. Eur J Biochem 267, 5421-5426, 2000). Resazurin is reduced to the fluorescent resorufin by cellular dehydrogenase activity, correlating with viable, proliferating cells. Test compounds are dissolved as 10 mM solutions in DMSO and subsequently diluted. Cells like HCT116 or A549 cells were seeded into 96 well flat bottom plates at a density of 10000 cells/well (OvCAR3 cells), 1000 cells/well (HCT116 cells) or 2000 cells/well (A549 cells) in a volume of 200 µl/well. 24 hours after seeding, 1 µl each of the compound dilutions are added into each well of the 96 well plates. Each compound dilution is tested as at least as duplicates. Wells containing untreated control cells were filled with 200 µl DMEM (Dulbecco's Modified Eagle Medium) containing 0.5vol% v:v DMSO. The cells are then incubated with the substances for 48h at 37°C in a humidified atmosphere containing 5vol% CO2. To determine the viability of the cells, 20 µl of a Resazurin solution (90mg / l) are added. After 4h incubation at 37°C, the fluorescence is measured by extinction at ? = 544 nm and an emission of ? = 590 nm (Wallac Victor2; Perkin Elmer, USA). For the calculation of the cell viability, the emission value from untreated cells is set as 100% viability and the fluorescence intensity of treated cells are set in relation to the values of untreated cells. Viabilities are expressed as % values. The corresponding IC50 values of the compounds for cytotoxic activity are determined from the concentration-effect curves by means of non-linear regression. The analysis of the data is performed using a biostatistical program (GraphPad Prism, USA). Representative IC50 values for anti-proliferative / cytotoxic potency determined in the aforementioned assay follow from the following table, in which the numbers of the compound correspond to the numbers of the examples.

Row | IC50 [1] | Compound | IC50 (OvCAR3 cells)
1 | < 1000 nM | c1ccc(-c2cn3nccc3nc2-c2ccc(CN3CCC(c4n[nH]c(-c5ccccn5)n4)CC3)cc2)cc1 [Example 19, 6-phenyl-5-(4-{[4-(5-pyridin-2-yl-1,2,4-triazol-3-yl)piperidin-1-yl]methyl}phenyl)pyrazolo[1,5-a]pyrimidine] | < 1000 nM
2 | < 1000 nM | c1ccc(-c2cn3ccnc3nc2-c2ccc(CN3CCC(n4cnc(-c5ccccn5)c4)CC3)cc2)cc1 [Example 20, 6-phenyl-7-(4-{[4-(4-pyridin-2-yl-imidazol-1-yl)piperidin-1-yl]methyl}phenyl)imidazo[1,2-a]pyrimidine] | > 1000 nM
3 | < 1000 nM | c1ccc(-c2cn3ccnc3nc2-c2ccc(CN3CCC(c4n[nH]c(-c5cnccn5)n4)CC3)cc2)cc1 [Example 21, 6-phenyl-7-(4-{[4-(5-pyrazin-2-yl-1,2,4-triazol-3-yl)piperidin-1-yl]methyl}phenyl)imidazo[1,2-a]pyrimidine] | > 1000 nM
4 | < 1000 nM | CCc1cnc2nc(-c3ccc(CN4CCC(c5n[nH]c(-c6ccccn6)n5)CC4)cc3)c(-c3ccccc3)cn12 [Example 22, 3-ethyl-6-phenyl-7-(4-{[4-(5-pyridin-2-yl-1,2,4-triazol-3-yl)piperidin-1-yl]methyl}phenyl)imidazo[1,2-a]pyrimidine] | < 1000 nM
